pKd: −log10 of the molar value.

This assay addresses T1, EGFR (Homo sapiens, UniProt P00533).
T1 construct: GST-tagged EGFR (696–1022), intracellular kinase domain
As to the kind of experiment: SPR (Biacore T200, GST-EGFR captured by anti-GST on CM5 chip); also kinase assay (Kinase-Glo) IC50 about […]. The format is binding. Background: Surface plasmon resonance follows binding to a sensor surface in real time, without labels.

T1 sequence (P00533 696-1022): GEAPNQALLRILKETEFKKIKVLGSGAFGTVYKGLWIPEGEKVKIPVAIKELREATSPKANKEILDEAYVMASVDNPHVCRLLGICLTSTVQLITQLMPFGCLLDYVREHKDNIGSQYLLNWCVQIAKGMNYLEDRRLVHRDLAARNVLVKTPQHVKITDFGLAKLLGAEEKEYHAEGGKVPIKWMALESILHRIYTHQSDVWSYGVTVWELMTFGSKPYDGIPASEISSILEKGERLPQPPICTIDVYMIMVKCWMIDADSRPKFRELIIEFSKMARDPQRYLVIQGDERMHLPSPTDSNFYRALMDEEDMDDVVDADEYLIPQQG

Compound `O[C@H]1[C@H]2c3cc4c(cc3CN3CCC(=C[C@@H]1O)[C@H]23)OCO4` [Lycorine] gave a pKd of approximately 5.44.

In general, pKd refers to the Kd on a negative log10 scale, so that one unit is a factor of ten. A higher pKd goes with a small Kd.
